Experimental data published in ChEMBL document CHEMBL4651402, “Screening of ~5500 FDA-approved drugs and clinical candidates for anti-SARS-CoV-2 activity” (2021).
Bridge positions count the residues as written; N and C are the ends. Square brackets hold non-standard residues; d marks the D form. Peptide text beside a SMILES is read from it. * marks the point of attachment. NH(β-GlcNAc) = CC(=O)N[C@@H]1[C@@H](O)[C@H](O)[C@@H](CO)O[C@H]1N*; Dap = NC[C@H](N)C(=O)O

System: SARS-CoV-2
Assay: microbe, parasite or virus in culture
Conditions: Severe acute respiratory syndrome coronavirus 2, Vero C1008, 48 h

Structure (SMILES)	IC50	IC50 (read-out: pIC50 (converted))
CC1(C)O[C@@H]2C[C@H]3[C@@H]4C[C@H](F)C5=CC(=O)CC[C@]5(C)[C@H]4[C@@H](O)C[C@]3(C)[C@]2(C(=O)CO)O1 [FLURANDRENOLIDE]	> 20 µM	> 20 µM
C[C@H](O)C(=O)O [L-LACTIC ACID]	> 20 µM	> 20 µM
O=C(/C=C/c1ccc2c(c1)OCO2)N1CCCCC1 [ILEPCIMIDE]	> 20 µM	> 20 µM
CN(CCOc1ccc(NS(C)(=O)=O)cc1)CCc1ccc(NS(C)(=O)=O)cc1 [DOFETILIDE]	> 20 µM	> 20 µM
CCN(CC)CCNC(=O)c1cc(Cl)c(N)cc1OC(C)C(C)=O (stereo not drawn) [BATANOPRIDE]	> 20 µM	> 20 µM
COC(=O)[C@H](C)N[P@](=O)(OC[C@H]1O[C@@H](n2cc(/C=C/Br)c(=O)[nH]c2=O)C[C@@H]1O)Oc1ccccc1	> 20 µM	> 20 µM
N#CC(c1ccc(Cl)cc1)c1c(Cl)cc(-n2ncc(=O)[nH]c2=O)cc1Cl (stereo not drawn) [DICLAZURIL]	> 20 µM	> 20 µM
CCNC(=O)OC1CCN(c2nncc3cc(OC)c(OC)cc23)CC1 [CARBAZERAN]	> 20 µM	> 20 µM
CCOC(=O)C1OC1C(=O)NC(CC(C)C)C(=O)N1CCN(Cc2ccc(OC)c(OC)c2OC)CC1 (stereo not drawn)	> 20 µM	> 20 µM
Cc1ccc(S(=O)(=O)Nc2nc3ccccc3nc2Nc2ccc3nsnc3c2)cc1	> 20 µM	> 20 µM
CCN1C[C@]2(OC(=O)c3ccccc3NC(C)=O)CC[C@H](OC)[C@@]34[C@@H]2C[C@@H]([C@@H]13)[C@@]1(O)C[C@H](OC)[C@H]2C[C@@H]4[C@]1(O)[C@H]2OC	> 20 µM	> 20 µM
CC(=O)OC1CC2CCC3C(CCC4(C)C3CC(N3CC[N+](C)(C)CC3)C4OC(C)=O)C2(C)CC1N1CC[N+](C)(C)CC1 (stereo not drawn)	> 20 µM	> 20 µM
CC(Cc1ccccc1)(NC(=O)CN)c1ccccc1 (stereo not drawn) [REMACEMIDE]	> 20 µM	> 20 µM
CN1CCN2c3ccccc3Cc3ccccc3C2C1 (stereo not drawn) [MIANSERIN]	> 20 µM	> 20 µM
CCN1[C@@H]2CC[C@H]1C[C@@H](OC(c1ccccc1)c1ccccc1)C2 [ETHYBENZTROPINE]	> 20 µM	> 20 µM
Oc1cc(O)c2cc(O)c(-c3ccc(O)c(O)c3)[o+]c2c1 [CYANIDIN]	> 20 µM	> 20 µM
COc1ccc2c3c1O[C@H]1[C@@H](O)C=C[C@H]4C(C2)N(C)CCC341 (stereo partly drawn)	> 20 µM	> 20 µM
COc1c2ccccc2nc2occc12 [DICTAMNINE]	> 20 µM	> 20 µM
O=C(Cn1ccnc1[N+](=O)[O-])NCCO [ETANIDAZOLE]	> 20 µM	> 20 µM
O=C(O)c1ccc(N[C@H]2OC[C@H](O)[C@@H](O)[C@H]2O)cc1	> 20 µM	> 20 µM
CCCS(=O)(=O)Nc1ccc(F)c(C(=O)c2c[nH]c3ncc(-c4ccc(Cl)cc4)cc23)c1F [VEMURAFENIB]	> 20 µM	> 20 µM
CC(C(=O)O)c1ccc(C(=O)c2ccccc2)s1 (stereo not drawn) [TIAPROFENIC ACID]	> 20 µM	> 20 µM
Oc1ccc2ccccc2c1 [BETANAPHTHOL]	> 20 µM	> 20 µM
C[C@]12O[C@H](C[C@]1(O)CO)n1c3ccccc3c3c4c(c5c6ccccc6n2c5c31)CNC4=O [LESTAURTINIB]	> 20 µM	> 20 µM
CC(C)N(C(=O)CN1C(=O)[C@@H](NC(=O)Nc2cccc(C(=O)O)c2)C(=O)N(c2ccccc2)c2ccccc21)c1ccccc1	> 20 µM	> 20 µM

Structure (SMILES)	IC50	IC50 (read-out: pIC50 (converted))
CCCCCCCCCCC[C@@H](C[C@@H]1OC(=O)[C@H]1CCCCCC)OC(=O)[C@H](CC(C)C)NC=O [ORLISTAT]	> 20 µM	> 20 µM
CCCn1c(=O)c2nc(C34CC5CC(CC(C5)C3)C4)[nH]c2n(CCC)c1=O	> 20 µM	> 20 µM
CC(=O)Nc1c(I)c(C(=O)N[C@H]2C(O)O[C@H](CO)[C@@H](O)[C@@H]2O)c(I)c(N(C)C(C)=O)c1I (stereo partly drawn) [METRIZAMIDE]	> 20 µM	> 20 µM
OC[C@H]1NC[C@H](O)[C@@H](O)[C@@H]1O [DUVOGLUSTAT]	> 20 µM	> 20 µM
Nc1[nH]ncc1-c1cc(Cl)ccc1Oc1cc(F)c(S(=O)(=O)Nc2cscn2)cc1Cl [PF-05089771]	> 20 µM	> 20 µM
CN(C)N=Nc1[nH]cnc1C(N)=O	> 20 µM	> 20 µM
CC(C)=CCC[C@]1(C)C=Cc2c(O)c3c(c(CC=C(C)C)c2O1)O[C@]12C(=C[C@@H]4C[C@H]1C(C)(C)O[C@@]2(C/C=C(/C)C(=O)O)C4=O)C3=O [GAMBOGIC ACID]	> 20 µM	> 20 µM
O=C(CCc1ccc(O)cc1)c1c(O)cc(O)cc1OC1OC(CO)C(O)C(O)C1O (stereo not drawn)	> 20 µM	> 20 µM
O=C(O)C1=C[C@@H](O)[C@@H](O)[C@H](O)C1 [SHIKIMIC ACID]	> 20 µM	> 20 µM
CC(C)(C)NC(=O)[C@@H]1CN(Cc2cccnc2)CCN1C[C@@H](O)C[C@@H](Cc1ccccc1)C(=O)N[C@H]1c2ccccc2C[C@H]1O	> 10 µM	> 10 µM
N=C(N)NCC1COc2ccccc2O1 (stereo not drawn) [GUANOXAN]	> 20 µM	> 20 µM
CCC(=O)C(CCN(C)C)(c1ccccc1)c1ccccc1 [NORMETHADONE]	> 20 µM	> 20 µM
[NH-]c1c[n+](N2CCOCC2)no1 [LINSIDOMINE]	> 20 µM	> 20 µM
CN1CCc2cc3c(cc2[C@H]1[C@@H]1OC(=O)c2c1ccc1c2OCO1)OCO3 [BICUCULLINE]	> 20 µM	> 20 µM
CC[N+](C)(C)c1cccc(O)c1 [EDROPHONIUM]	> 20 µM	> 20 µM
COc1cc2c(N)nc(N3CCN(C(=O)OCC(C)(C)O)CC3)nc2c(OC)c1OC [TRIMAZOSIN]	> 20 µM	> 20 µM
CC(=O)N[C@@H]1[C@@H](O)[C@H](O)[C@@H](CO)O[C@H]1NC(=O)C[C@@H]1NC(=O)[C@H](CC(C)C)NC(=O)[C@@H]2CNC(=O)C[C@H](NC1=O)C(=O)N[C@@H](Cc1c[nH]c3ccccc13)C(=O)N[C@@H](Cc1ccccc1)C(=O)N2 [NEPADUTANT] (cyclo(D(NH(β-GlcNAc))DWF[Dap]L); lactam 2-5)	> 20 µM	> 20 µM
O=c1[nH]sc2cc(Cl)ccc12 [TICLATONE]	> 20 µM	> 20 µM
CN1CCc2cc3c(c4c2[C@@H]1Cc1ccccc1-4)OCO3	> 20 µM	> 20 µM
CCCc1nc(C(C)(C)O)c(C(=O)O)n1Cc1ccc(-c2ccccc2-c2nnn[nH]2)cc1 [OLMESARTAN]	> 20 µM	> 20 µM
O=C(O)CCC(=O)Nc1ccc(S(=O)(=O)Nc2nccs2)cc1 [SUCCINYLSULFATHIAZOLE]	> 20 µM	> 20 µM
C[C@]12CCC(=O)C=C1CC[C@@H]1[C@@H]2CC[C@]2(C)C(=O)CC[C@@H]12 [ANDROSTENEDIONE]	> 20 µM	> 20 µM
COC(=O)C1=C(C)NC(C)=C(C(=O)OC(C)(C)CN(C)CCC(c2ccccc2)c2ccccc2)C1c1cccc([N+](=O)[O-])c1 (stereo not drawn) [LERCANIDIPINE]	> 20 µM	> 20 µM
CC1(C)C[C@@H]1C(=O)N/C(=C\CCCCSC[C@H](N)C(=O)O)C(=O)O [CILASTATIN]	> 20 µM	> 20 µM
